Conditions: Liquid, Vibrating tube method

CCCCn1cc[n+](C)c1.CCCCn1cc[n+](C)c1.[Co+2].[N-]=C=S.[N-]=C=S.[N-]=C=S.[N-]=C=S [bis(1-butyl-3-methylimidazolium) tetrathiocyanatocobaltate]
mass density [kg/m3]
Conditions	283.16 K	293.13 K	303.17 K	313.17 K	323.18 K
100 kPa	1233.1	1226.4	1219.6	1212.6	1205.8
1000 kPa	1233.5	1226.9	1220.1	1213.2	1206.3
2000 kPa	1233.9	1227.4	1220.5	1213.6	1206.8
5000 kPa	1235.3	1228.9	1222.1	1215.2	1208.3
7000 kPa	1236.2	1229.7	1222.9	1216.2	1209.4
10000 kPa	1237.6	1231.1	1224.3	1217.7	1210.8
15000 kPa	1239.8	1233.5	1226.8	1220.1	1213.3
20000 kPa	1241.9	1235.6	1229.1	1222.5	1215.8
25000 kPa	1244	1237.6	1231.3	1224.8	1218.1
30000 kPa	1245.9	1239.7	1233.5	1226.9	1220.5
35000 kPa	1248	1241.8	1235.6	1229.1	1222.8
40000 kPa	1250.1	1243.8	1237.7	1231.3	–
45000 kPa	1251.9	1245.9	1239.7	1233.3	–
50000 kPa	1253.9	1248	1241.7	1235.3	–
55000 kPa	1255.8	1250	1243.6	1237.4	–
60000 kPa	1257.6	1251.9	1245.6	1239.4	–
65000 kPa	1259.4	1253.8	1247.5	1241.3	–
70000 kPa	1261.3	1255.5	1249.4	1243.4	–
75000 kPa	1263.2	1257.4	1251.3	1245.2	–
80000 kPa	1264.9	1259.1	1253.1	1247	–
85000 kPa	1266.6	1261	1254.8	1248.9	–
90000 kPa	1268.4	1262.6	1256.7	1250.6	–
95000 kPa	1270.1	1264.4	1258.5	1252.5	–
